By Ki is commonly meant a dissociation constant, usually derived from enzyme kinetics or from competition with a known ligand.

Among the data in patent EP2150534B1, “ISOQUINOLINONE DERIVATIVES AS NK3 ANTAGONISTS” (H. Lundbeck A/S, priority 2007, dated 2008) are IC50 and Ki values, retold here.

For assay [1], the target named is T1, human NK3 receptor (Homo sapiens, UniProt P29371).
T1 construct: expressed in transfected cells; membranes prepared from them
T1 sequence (P29371 1-465): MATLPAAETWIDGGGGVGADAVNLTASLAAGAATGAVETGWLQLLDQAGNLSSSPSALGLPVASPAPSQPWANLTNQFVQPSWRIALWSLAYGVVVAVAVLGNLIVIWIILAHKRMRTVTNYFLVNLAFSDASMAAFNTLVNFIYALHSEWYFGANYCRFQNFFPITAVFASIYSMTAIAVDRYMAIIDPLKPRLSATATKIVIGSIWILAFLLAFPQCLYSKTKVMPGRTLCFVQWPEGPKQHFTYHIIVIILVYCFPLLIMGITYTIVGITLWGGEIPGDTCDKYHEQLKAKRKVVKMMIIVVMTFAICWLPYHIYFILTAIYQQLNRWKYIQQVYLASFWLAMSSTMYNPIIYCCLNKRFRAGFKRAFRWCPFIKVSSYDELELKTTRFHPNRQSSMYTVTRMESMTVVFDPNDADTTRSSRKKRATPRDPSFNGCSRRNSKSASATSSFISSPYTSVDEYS
Put plainly: NK3 receptor efficacy and potency assay (FLIPR Calcium 4 assay, BHK cells; agonist and antagonist mode versus NKB). Format: cell-based. To be noted: read-out: Potency cIC50. As to the method:
BHK cells stably expressing the human NK3 receptor were seeded in 100 µl media in black walled clear-base 96-wells plates (Costar) aiming at a confluency of 95-100% at the day of assay. The assay was performed according to the FLIPR Calcium 4 Assay kit (Molecular Devices). At the day of the assay, the media was removed and the cells were washed once with the HBSS buffer (Hanks BSS buffer, pH 7,4 containing 20 mM Hepes) before 100 µl of a solution of the calcium assay reagent dissolved in the HBSS buffer containing 2,5 mM probinicid was added to the cells. The plates were incubated for 60 min at 34°C, 10% CO2 before use in the FLIPR for examination of fluorescence.
For efficacy and potency evaluation of compounds, these were diluted in HBSS buffer prior to test. For test of agonist activity, 25 µl of the diluted compound solution was added and the plate was analyzed for 5 minutes in the FLIPR. […] The plates were subsequently analyzed for 5 minutes before the assay was terminated. The maximal increase in fluorescence over background following each ligand addition was determined.

Assay [2] has as its target T1, human NK3 receptor. In words: NK3 receptor binding assay (SPA-based competition binding with 125I-NKB, membranes of BHK cells). As to the method: Membranepreparation: BHK cells stably expressing the human NK3 receptor were seeded in harvesting plates in Dulbeccos MEM containing GlutaMax (862 mg/l), 1 mM sodium pyruvate, 10% fetal calf serum, 1% Pen/Strep, I mg/ml G418 and were grown at 34 °C in a humidified atmosphere containing 10% CO2. To increase receptor expression, 10 µM trichotatin A was added to the media 24 hours before harvest of the cells at a confluency of app 90%. Prior to the harvesting, the cells were washed twice with PBS without Mg^2+ og Ca^2+ and subsequently scrapped of in 10 ml PBS pr harvesting plate. The cells suspension were centrifuged at 1500xG in three minutes before resuspension in 15 mM Tris-HCl pH 7,5 buffer containing 2 mM MgCl2; 0,3 mM EDTA and 1 mM EGTA (buffer A). The cell suspention was homogenised and subsequently centrifuged at 40000xG in 30 minutes. The membrane-pellet was resuspended in buffer A containing 250 mM sucrose, alliquoted and stored at - 80°C.
Affinity assay description: The assay was performed as a SPA-based competition-binding assay in a 50 mM Tris pH 7.4 assay buffer containing 120 mM NaCl, 3 mM MnCl2, 40 µg/ml bacitracin, 2 µg/ml Chymostatin, 1 µg/ml Phosphoramidon and 4 µg/ml Leupeptin. App 0.02 nM ^125I-NKB was mixed with test compounds before addition of 4 µg of the homogenised NK3 membrane preparation and 0,025 mg SPA beads in a total volume of 60 µl. The assay plate was subsequently under agitation incubated for 90 min at RT. The plate was centrifugated 10 minutes at 500xG and counted in a topcounter 5 minuttes pr well.
The non-specific binding constituted app 5 % of the total binding.
Data points were expressed in percent of the specific binding of ^125I-NKB and the IC50 values (concentration causing 50 percent inhibition of ^125I-NKB specific binding) were determined by non-linear regression analysis using a sigmoidal variable slope curve fitting. The dissociation constant (Ki) were calculated from the Cheng Prusoff equation (Ki = IG50/(1+(L/KD))), where the concentration of free radioligand L is approximated to the concentration of added ^125I-NKB in the assay (app 0,02 nM).
The KD of ^125I-NKB was determined to be 0,7 nM from three independent saturation assays each performed with duplicate determinations. Bmax was app 2 pmol/mg.

[3] abbreviates: table of Example 10, affinity obtained as described in Example 9, read-out: Affinity Ki.
[4] abbreviates: Ki for the NK3 receptor, table of Example 9, 125I-NKB competition binding, read-out: Ki.

Structures are written as SMILES. Where two headings read alike, the source gives them in different places.

`CC[C@H](NC(=O)c1c(CN2CCNC(=O)C2)n(-c2ccccc2)c(=O)c2ccccc12)c1ccccc1` [Example 2df, 1-Oxo-3-(3-oxo-piperazin-1-ylmethyl)-2-phenyl-1,2-dihydro-isoquinoline-4-carboxylic acid ((S)-1-phenyl-propyl)-amide]: the IC50 at human NK3 receptor [1] was 450 nM. Moreover, on human NK3 receptor [2] (setting [3]), the Ki was found to be 340 nM.
Regarding `CC[C@H](NC(=O)c1c(CNCC2CC2)n(-c2ccccc2)c(=O)c2ccccc12)c1ccccc1` [Example 2e, 3-[(Cyclopropylmethyl-amino)-methyl]-1-oxo-2-phenyl-1,2-dihydro-isoquinoline-4-carboxylic acid ((S)-1-phenyl-propyl)-amide], the IC50 on human NK3 receptor [1] was 470 nM. Further, the Ki on human NK3 receptor [2] (setting [3]) stood at 330 nM.
For `CC[C@H](NC(=O)c1c(CNC(C)(C)C)n(-c2ccccc2)c(=O)c2ccccc12)c1ccccc1` [Example 2ec, 3-(tert-Butylamino-methyl)-1-oxo-2-phenyl-1,2-dihydro-isoquinoline-4-carboxylic acid ((S)-1-phenyl-propyl)-amide] the same measures were 520 nM and 210 nM.
For `CCC(CO)NCc1c(C(=O)N[C@@H](CC)c2ccccc2)c2ccccc2c(=O)n1-c1ccccc1` (stereo partly drawn) [Example 2eg, 3-[(1-Hydroxymethyl-propylamino)-methyl]-1-oxo-2-phenyl-1,2-dihydro-isoquinoline-4-carboxylic acid ((S)-1-phenyl-propyl)-amide] the same measures were 610 nM and 240 nM.
For `CC[C@H](NC(=O)c1c(CN2CC[C@H](O)C2)n(-c2ccccc2)c(=O)c2ccccc12)c1ccccc1` [Example 2es, 3-((S)-3-Hydroxy-pyrrolidin-1-ylmethyl)-1-oxo-2-phenyl-1,2-dihydro-isoquinoline-4-carboxylic acid ((S)-1-phenyl-propyl)-amide] the same measures were 240 nM and 140 nM.
As for `CC[C@H](NC(=O)c1c(CN2CCC2)n(-c2ccccc2)c(=O)c2ccccc12)c1ccccc1` [Example 2ey, 3-Azetidin-1-ylmethyl-1-oxo-2-phenyl-1,2-dihydro-isoquinoline-4-carboxylic acid ((S)-1-phenyl-propyl)-amide], the IC50 at human NK3 receptor [1] was determined as 480 nM. Moreover, on human NK3 receptor [2] (setting [3]), the Ki is 240 nM.
The matching figures for `CC[C@H](NC(=O)c1c(CN2CCN(c3ccc4ncccc4c3)CC2)n(-c2ccccc2)c(=O)c2ccccc12)c1ccccc1` [Example 2fm, 1-Oxo-2-phenyl-3-(4-quinolin-6-yl-piperazin-1-ylmethyl)-1,2-dihydro-isoquinoline-4-carboxylic acid ((S)-1-phenyl-propyl)-amide]: 140 nM and 33 nM.
The matching figures for `CC[C@H](NC(=O)c1c(CN2CCC(O)(c3cccc(OC)c3)CC2)n(-c2ccccc2)c(=O)c2ccccc12)c1ccccc1` [Example 2gt, 3-[4-Hydroxy-4-(3-methoxy-phenyl)-piperidin-1-ylmethyl]-1-oxo-2-phenyl-1,2-dihydro-isoquinoline-4-carboxylic acid ((S)-1-phenyl-propyl)-amide]: 22 nM and 9.2 nM.
On to `O=C(NC(c1cccc(F)c1)C1CC1)c1c(CN2CCN(CCc3ccccc3)CC2)n(-c2ccccc2)c(=O)c2ccccc12` (stereo not drawn) [Example 2hq, 1-Oxo-3-(4-phenethyl-piperazin-1-ylmethyl)-2-phenyl-1,2-dihydro-isoquinoline-4-carboxylic acid [cyclopropyl-(3-fluoro-phenyl)-methyl]-amide], for which the IC50 at human NK3 receptor [1] worked out at 44 nM. Besides, on human NK3 receptor [2] (setting [3]), the inhibitory constant (Ki) was 10 nM.
`O=C(NC(c1cccc(F)c1)C1CC1)c1c(CN2CCN(CCN3CCOCC3)CC2)n(-c2ccccc2)c(=O)c2ccccc12` (stereo not drawn) [Example 2hs]: the IC50 on human NK3 receptor [1] came out at 21 nM. Besides, the results for the Ki on human NK3 receptor [2] (setting [4]) and on human NK3 receptor [2] (setting [3]) were 5.3 nM and 7.5 nM, respectively.
Take `O=C(NC(c1cccc(F)c1)C1CC1)c1c(CN2CCN(CCN3CCCCC3)CC2)n(-c2ccccc2)c(=O)c2ccccc12` (stereo not drawn) [Example 2hu, 1-Oxo-2-phenyl-3-[4-(2-piperidin-1-yl-ethyl)-piperazin-1-ylmethyl]-1,2-dihydro-isoquinoline-4-carboxylic acid [cyclopropyl-(3-fluoro-phenyl)-methyl]-amide]: at human NK3 receptor [1], the IC50 worked out at 29 nM. Moreover, the Ki at human NK3 receptor [2] (setting [3]) came to 6.2 nM.
The matching figures for `O=C(NC(c1cccc(F)c1)C1CC1)c1c(CN2CCN(CCN3CCCC3)CC2)n(-c2ccccc2)c(=O)c2ccccc12` (stereo not drawn) [Example 2hv, 1-Oxo-2-phenyl-3-[4-(2-pyrrolidin-1-yl-ethyl)-piperazin-1-ylmethyl]-1,2-dihydro-isoquinolinc-4-carboxylic acid [cyclopropyl-(3-fluoro-phenyl)-methyl]-amide]: 35 nM and 14 nM.
For `O=C(NC(c1cccc(F)c1)C1CC1)c1c(CN2CCN(Cc3ccncc3)CC2)n(-c2ccccc2)c(=O)c2ccccc12` (stereo not drawn) [Example 2hw, 1-Oxo-2-phenyl-3-(4-pyridin4-methyl-piperazin-1-ylmethyl)-1,2-dihydro-isoquinoline-4-carboxylic acid [cyclopropyl-(3-fluoro-phenyl)-methyl]-amide] the same measures were 63 nM and 8.2 nM.
For `O=C(NC(c1cccc(F)c1)C1CC1)c1c(CN2CCC(O)(c3ccncc3)CC2)n(-c2ccccc2)c(=O)c2ccccc12` (stereo not drawn) [Example 2hx, 3-(4-Hydroxy-3,4,5,6-tetrahydro-2H-[4,4']bipyridinyl-1-ylmethyl)-1-oxo-2-phenyl-1,2-dihydro-isoquinoline-4-carboxylic acid [cyclopropyl-(3-fluoro-phenyl)-methyl]-amide] the same measures were 68 nM and 9.3 nM.
In the case of `O=C(NC(c1cccc(F)c1)C1CC1)c1c(CN2CCC(CCN3CCOCC3)CC2)n(-c2ccccc2)c(=O)c2ccccc12` (stereo not drawn) [Example 2hy, 3-[4-(2-Morpholin-4-yl-ethyl)-piperidin-1-ylmethyl]-1-oxo-2-phenyl-1,2-dihydro-isoquinoline-4-carboxylic acid [cyclopropyl-(3-fluoro-phenyl)-methyl]-amide], the IC50 at human NK3 receptor [1] worked out at 63 nM. The Ki at human NK3 receptor [2] (setting [3]) came out at 8.8 nM.
For the molecule `COc1cccc(C2(O)CCN(Cc3c(C(=O)NC(c4cccc(F)c4)C4CC4)c4ccccc4c(=O)n3-c3ccccc3)CC2)c1` (stereo not drawn) [Example 2hz, 3-[4-Hydroxy-4-(3-methoxy-phenyl)-piperidin-1-ylmethyl]-1-oxo-2-phenyl-1,2-dihydro-isoquinoline-4-carboxylic acid [cyclopropyl-(3-fluoro-phenyl)-methyl]-amide], the IC50 at human NK3 receptor [1] worked out at 35 nM. For the same molecule, the Ki at human NK3 receptor [2] (setting [4]) turned out to be 3 nM; on human NK3 receptor [2] (setting [3]), 4.5 nM.
As to `CC(=O)N(C)C1(c2ccccc2)CCN(Cc2c(C(=O)NC(c3cccc(F)c3)C3CC3)c3ccccc3c(=O)n2-c2ccccc2)CC1` (stereo not drawn) [Example 2ia, 3-[4-(Acetyl-methyl-amino)-4-phenyl-piperidin-1-ylmethyl]-1-oxo-2-phenyl-1,2-dihydro-isoquinoline-4-carboxylic acid [cyclopropyl-(3-fluoro-phenyl)-methyl]-amide], the IC50 on human NK3 receptor [1] is 100 nM. Also, the Ki on human NK3 receptor [2] (setting [3]) is 12 nM.
